Key:
[1] = Thermal stability, TG/DTA measurement; settings: for thermal stability higher compared to Z-DOL (Comparative Example 10C) / thermal stability higher compared to Z-TETRAOL (Comparative Example 11C): difference of weight reduction temperatures; for Weight reduction temperature 5% / Weight reduction temperature 10% / Weight reduction temperature 20%: air 200 mL/min, 30° C. to 600° C., heating rate 10° C./min
[2] = in acetonitrile; cited from earlier work
[3] = Solubility to fluorine-based solvent (Vertrel XF), 1.0/0.5/0.1 parts by mass added; settings: Vertrel XF [CF3(CHF)2CF2CF3], 25° C., ultrasonic waves 5 minutes, left 1 day, visual observation; 0.5 and 0.1 parts by mass per 100 parts
Description: Then, the resultant was left to stand for 1 day and solubility thereof was visually observed.
Then, the resultant was left to stand for 1 day and solubility thereof was visually observed, followed by evaluation based on the following evaluation criteria.
[Evaluation Criteria] • 0.5% by mass or more:
When 0.5 parts by mass of the ionic liquid was added, dissolution was found. • 0.1% by mass or more but less than 0.5% by mass:
When 0.5 parts by mass of the ionic liquid was added, no dissolution was found. However, when 0.1 parts by mass of the ionic liquid was added, dissolution was found. • Less than 0.1% by mass:
When 0.5 parts by mass of the ionic liquid was added, no dissolution was found. Moreover, when 0.1 parts by mass of the ionic liquid was added, no dissolution was found.

[4] = Solubility to solvents (Vertrel XF, n-hexane, ethanol); type: physicochemical; settings: 25° C., visual observation after 1 day; for Solubility Fluorine-based solvent: Vertrel XF, 0.2 parts by mass per 100 parts; for Solubility Ethanol / Solubility n-Hexane: 0.5 parts by mass per 100 parts
Description: To a predetermined mass of Vertrel XF, n-hexane, or ethanol, each of the ionic liquids was added and was irradiated with ultrasonic waves for 5 minutes. Then, the resultant was left to stand for 1 day and solubility thereof was visually observed.
Specifically, to 100 parts by mass of Vertrel XF (25° C.), 0.2 parts by mass of the ionic liquid was added and was irradiated with ultrasonic waves for 5 minutes. Then, the resultant was left to stand for 1 day and solubility thereof was visually observed, followed by evaluation based on the following evaluation criteria. In the cases of n-hexane and ethanol, each of the ionic liquids (0.5 parts by mass) was added to 100 parts by mass of n-hexane or ethanol at 25° C. The resultant was irradiated with ultrasonic waves for 5 minutes. Then, the resultant was left to stand for 1 day and solubility thereof was visually observed, followed by evaluation based on the following evaluation criteria.
<<Vertrel XF>> • 0.2% by mass or more:
When 0.2 parts by mass of the ionic liquid was added, dissolution was found. • Less than 0.2% by mass:
When 0.2 parts by mass of the ionic liquid was added, no dissolution was found.
<<n-Hexane and Ethanol>> • 0.5% by mass or more:
When 0.5 parts by mass of the ionic liquid was added, dissolution was found. • Less than 0.5% by mass:

| Molecule | Weight reduction temperature 5% [1] | Weight reduction temperature 10% [1] | Weight reduction temperature 20% [1] | other results |
| --- | --- | --- | --- | --- |
| CCCCCCCCCCCCCCCCCC[n+]1ccn(CCCO)c1CCCCCCCCCCCCCCCCC.O=S(=O)([N-]S(=O)(=O)C(F)(F)C(F)(F)C(F)(F)C(F)(F)F)C(F)(F)C(F)(F)C(F)(F)C(F)(F)F | – | – | – | thermal stability higher compared to Z-DOL (Comparative Example 10C) [1]: ≥ 160 °C; thermal stability higher compared to Z-TETRAOL (Comparative Example 11C) [1]: ≥ 85 °C |
| CCCCCCCCCCCCCC[N+](C)(C)CCCO.O=S(=O)([N-]S(=O)(=O)C(F)(F)C(F)(F)C(F)(F)C(F)(F)F)C(F)(F)C(F)(F)C(F)(F)C(F)(F)F | – | – | – | thermal stability higher compared to Z-DOL (Comparative Example 10C) [1]: ≥ 145 °C; thermal stability higher compared to Z-TETRAOL (Comparative Example 11C) [1]: ≥ 90 °C |
| CCCCCCCCCCCCCCCCCC[N+](C)(C)CCCO.O=S(=O)([N-]S(=O)(=O)C(F)(F)C(F)(F)C(F)(F)C(F)(F)F)C(F)(F)C(F)(F)C(F)(F)C(F)(F)F | – | – | – | thermal stability higher compared to Z-DOL (Comparative Example 10C) [1]: ≥ 150 °C; thermal stability higher compared to Z-TETRAOL (Comparative Example 11C) [1]: ≥ 90 °C |
| CCCCCCCCCCCCCCCCCC[N+]1(CCCO)CCCC1.O=S(=O)([N-]S(=O)(=O)C(F)(F)C(F)(F)C(F)(F)C(F)(F)F)C(F)(F)C(F)(F)C(F)(F)C(F)(F)F | – | – | – | thermal stability higher compared to Z-DOL (Comparative Example 10C) [1]: ≥ 160 °C; thermal stability higher compared to Z-TETRAOL (Comparative Example 11C) [1]: ≥ 100 °C |
| CCCCCCCCCCCCCCCCCC[n+]1ccn(CCCO)c1.O=S(=O)([N-]S(=O)(=O)C(F)(F)C(F)(F)C(F)(F)C(F)(F)F)C(F)(F)C(F)(F)C(F)(F)C(F)(F)F | – | – | – | thermal stability higher compared to Z-DOL (Comparative Example 10C) [1]: ≥ 150 °C; thermal stability higher compared to Z-TETRAOL (Comparative Example 11C) [1]: ≥ 90 °C |
| O=S(=O)(C(S(=O)(=O)C(F)(F)F)S(=O)(=O)C(F)(F)F)C(F)(F)F [(CF3SO2)3CH] | – | – | – | pKa [2]: −3.7 |
| CCCCCCCCCCCCCCCCCC[n+]1ccn(CCCC)c1.O=S1(=O)[N-]S(=O)(=O)C(F)(F)C(F)(F)C1(F)F [Comparative Example 2A, hexafluorocyclopropane-1,3-bis(sulfonyl)imide-1-butyl-3-n-octadecylimidazolium, reference compound] | 347.2 °C | 367.0 °C | 387.8 °C | Fluorine-based solvent solubility [3]: Less than 0.1% by % by mass |
| CCCCCCCCCCCCCCCCCCC1CCCCN2CCCN=C12.O=S1(=O)NS(=O)(=O)C(F)(F)C(F)(F)C1(F)F (stereo not drawn) [Comparative Example 4A, hexafluorocyclopropane-1,3-bis(sulfonyl)imide-6-octadecyl-1,8-diazabicyclo[5.4.0]-7-undecenium, reference compound] | 346.3 °C | 384.1 °C | 414.0 °C | Fluorine-based solvent solubility [3]: Less than 0.1% by % by mass |
| CCCCCCCCCCCCCCCCCCn1ccnc1CCCCCCCCCCCCCCCCC.O=S1(=O)NS(=O)(=O)C(F)(F)C(F)(F)C1(F)F [Comparative Example 7A, hexafluorocyclopropane-1,3-bis(sulfonyl)imide-1-octadecyl-2-heptadecylimidazolium, reference compound] | 303.7 °C | 366.4 °C | 405.0 °C | Solubility Fluorine-based solvent [4]: Less than 0.2% by mass; Solubility Ethanol [4]: ≥ 0.5% by mass; Solubility n-Hexane [4]: < 0.5% by mass |
| CCCCCCCCCCCCCCCCCCN.O=S(=O)(NS(=O)(=O)C(F)(F)C(F)(F)C(F)(F)C(F)(F)F)C(F)(F)C(F)(F)C(F)(F)C(F)(F)F [Comparative Example 8A, bis(nonafluorobutanesulfonyl)imide-octadecylammonium, reference compound] | 311.8 °C | 329.8 °C | 348.0 °C | Solubility Fluorine-based solvent [4]: Less than 0.2% by mass; Solubility Ethanol [4]: ≥ 0.5% by mass; Solubility n-Hexane [4]: < 0.5% by mass |
| CCCCCCCCCCCCCCCCCC[n+]1ccn(CCCO)c1.O=S(=O)([N-]S(=O)(=O)C(F)(F)C(F)(F)C(F)(F)C(F)(F)F)C(F)(F)C(F)(F)C(F)(F)C(F)(F)F [Example 2A, bis(nonafluorobutanesulfonyl)imide1-3′hydroxypropyl-3-octadecylimidazolium] | 327.7 °C | 361.7 °C | 389.3 °C | – |
| CCCCCCCCCCCCCCCCCC[N+]1(CCCO)CCCC1.O=S(=O)([N-]S(=O)(=O)C(F)(F)C(F)(F)C(F)(F)C(F)(F)F)C(F)(F)C(F)(F)C(F)(F)C(F)(F)F [Example 3A, bis(nonafluorobutanesulfonyl)imide-N-3′hydroxypropyl-N-octadecylpyrrolidinium] | 349.8 °C | 370.8 °C | 387.6 °C | – |
| CCCCCCCCCCCCCCCCCCC1CCCCN2CCC[N+](CCCO)=C12.O=S(=O)([N-]S(=O)(=O)C(F)(F)C(F)(F)C(F)(F)C(F)(F)F)C(F)(F)C(F)(F)C(F)(F)C(F)(F)F (stereo not drawn) [Example 5A, bis(nonafluorobutanesulfonyl)imide-6-octadecyl-8-3′-hydroxypropyl-1,8-diazabicyclo[5.4 0.0]-7-undecenium] | 326.2 °C | 360.8 °C | 387.7 °C | thermal stability higher compared to Z-DOL (Comparative Example 10C) [1]: ≥ 160 °C; thermal stability higher compared to Z-TETRAOL (Comparative Example 11C) [1]: ≥ 85 °C |
| CCCCCCCCCCCCCCCCCC[n+]1ccn(CCCO)c1CCCCCCCCCCCCCCCCC.O=S(=O)([N-]S(=O)(=O)C(F)(F)C(F)(F)C(F)(F)C(F)(F)F)C(F)(F)C(F)(F)C(F)(F)C(F)(F)F [Example 8A, bis(nonafluorobutanesulfonyl)imide-1-3′hydroxypropyl-2-heptadecyl-3-octadecylimidazolium] | 327.8 °C | 364.3 °C | 398.8 °C | – |
| CCCCCCCCCCCCCC[N+](C)(C)CCCO.O=S(=O)([N-]S(=O)(=O)C(F)(F)C(F)(F)C(F)(F)C(F)(F)F)C(F)(F)C(F)(F)C(F)(F)C(F)(F)F [Example 9A, bis(nonafluorobutanesulfonyl)imide-N-3′hydroxypropyl-N,N-dimethyltetradecylammonium] | 340.0 °C | 359.0 °C | 375.0 °C | – |
| CCCCCCCCCCCCCCCCCC[N+](C)(C)CCCO.O=S(=O)([N-]S(=O)(=O)C(F)(F)C(F)(F)C(F)(F)C(F)(F)F)C(F)(F)C(F)(F)C(F)(F)C(F)(F)F [Example 10A, bis(nonafluorobutanesulfonyl)imide-N-3′hydroxypropyl-N,N-dimethyloctadecylammonium] | 336.5 °C | 359.4 °C | 376.6 °C | – |
| O=S(=O)(NS(=O)(=O)C(F)(F)C(F)(F)C(F)(F)C(F)(F)F)C(F)(F)C(F)(F)C(F)(F)C(F)(F)F [bis(nonafluorobutanesulfonyl)imide] | – | – | – | pKa [2]: 0.0 |
| O=S1(=O)NS(=O)(=O)C(F)(F)C(F)(F)C1(F)F [hexafluorocyclopropane-1,3-bis(sulfonyl)imide] | – | – | – | pKa [2]: −0.8 |
| F[B-](F)(F)F.[H+] [tetrafluoroboric acid] | – | – | – | pKa [2]: 1.8 |
| bis(nonafluorobutanesulfonyl)imide-1-dodecyl-2-undecyl-3-3′hydroxypropyloctadecylimidazolium [Example 7A] | 350.9 °C | 373.7 °C | 394.8 °C | – |
| heptadecafluorooctanesulfonic acid-6-octadecyl-1,8-diazabicyclo[5.4.0]-7-undecenium | 361.9 °C | 382.7 °C | 403.5 °C | – |
| heptadecafluorooctanesulfonic acid-6-octadecyl-1,8-diazabicyclo[5.4.0]-7-undecenium [Comparative Example 3A] | – | – | – | Fluorine-based solvent solubility [3]: Less than 0.1% by % by mass |
| nonafluorobutanesulfonic acid-1-octadecyl-2-heptadecylimidazolium | 338.2 °C | 365.9 °C | 390.1 °C | – |
| nonafluorobutanesulfonic acid-1-octadecylimidazolium | 349.3 °C | 375.0 °C | 397.5 °C | – |
| nonafluorobutanesulfonic acid-N,N,N-trimethyloctadecylammonium [Comparative Example 9A, reference compound] | 340.5 °C | 356.2 °C | 371.9 °C | – |
| pentadecafluorooctanoic acid octadecylammonium [Comparative Example 5A, reference compound] | 206.9 °C | 215.8 °C | 223.4 °C | Fluorine-based solvent solubility [3]: Less than 0.1% by % by mass |
| pentadecafluorooctanoic acid octadecylammonium [pentadecafluorooctanoic acid octadecylammonium] | 206.9 °C | 215.8 °C | 223.4 °C | – |
| perfluorocyclopropane sulfoimide | – | – | – | pKa [2]: −0.8 |

Source: patent US20190051326A1, “Ionic Liquid, Lubricant, and Magnetic Recording Medium” (priority 2016, published 2019)
